System: green fluorescent protein labeled Salmonella enterica serovar Typhimurium
Assay: Adherence of Salmonella to porcine derived IPEC J2 jejunal cells (Example 4)
Format: cell-based
Conditions: bacteria pre-exposed to 0.05M methyl α-D mannoside
Procedure: Porcine derived IPEC J2 jejunal cells were seeded onto 8-well chamber slides. […] The cells were exposed to suspensions containing a green fluorescent protein labeled Salmonella enterica serovar Typhimurium previously exposed for 10 minutes to an equal volume of water or to a suspension containing 17.5 mg Nutritional Composition/ml or 0.05M methyl α-D_mannoside. After the addition of treated or untreated bacteria, the chamber slides were incubated to allow attachment to occur and the wells of each slide were washed. Slides were examined by phase contrast microscopy at 1,000× magnification, and numbers of attached cells of the green fluorescent protein labeled Salmonella enterica serovar Typhimurium were counted on 100 randomly selected IPEC J2 cells.

CO[C@H]1O[C@H](CO)[C@@H](O)[C@H](O)[C@@H]1O [methyl α-D mannoside, methyl α-D-mannoside]
Salmonella binding to the IPEC J2 cells: no effect

Reference: patent US9351515B2, “Nutritional composition and methods of making and using same” (Georgia-Pacific Panel Products LLC, priority 2009, dated 2016)
